The IC50 is the concentration that gives 50% inhibition. A low value points to inhibition by little substance.

Experimental findings from patent US4889871A, “Alkoxy-substituted dihydrobenzopyran-2-carboxylate derivatives” (G. D. Searle & Co., priority 1988, dated 1989) are described below.

Where two headings read alike, the source gives them in different places.

Assay [1] deals with T1, LTB4 receptor (Homo sapiens, UniProt Q15722).
T1 construct: Neutrophils were purified from venous blood of normal human donors; endogenous in cells; host or cells: purified human blood neutrophils (intact cells)
As to the kind of experiment: LTB4 receptor binding assay ((3H) LTB4, human neutrophils). As to conditions: Table 1. The protocol:
Neutrophils (4-6×10^6) in 1 ml Hanks' balanced salt solution containing 10 mM HEPES buffer (HBSS), pH 7.4 and 30 μM nordihydroguaiaretic acid were incubated with 0.6×10^-9 M (^3 H) LTB4 in the presence or absence of test compounds. The incubation was carried out at 0° C. for 45 minutes and terminated by adding 5 ml of ice-cold HBSS followed by rapid filtration of incubation mixture under vacuum through GF/C glass fiber filters. The filters were further washed with 10 ml HBSS and radioactivity was determined. Specific binding was defined as the difference between total binding and nonspecific binding which was not displaced by 10^-7 M unlabeled LTB4. All data refer to specific binding.

Assay [2] deals with human neutrophils. As to the kind of experiment: Human neutrophil degranulation assay (LTB4-induced, myeloperoxidase release). Conditions: Table 1, LTB4 (5×10^-8 M). Format: cell-based. The protocol: Neutrophils were purified from venous blood of normal human donors using standard techniques of dextran sedimentation, centrifugation on Ficoll-paque® (Pharmacia) or Histopaque® sterile solution (Sigma) and hypotonic lysis of erythrocytes (Boyum, A., Isolation of Leukocytes From Human Blood: Further Observations. Scand. J. Lab. Clin. Invest., 21 (Suppl. 97): 31, 1968). The purity of isolated neutrophils was >95%.
Neutrophil degranulation was determined by measuring the release of myeloperoxidase activity into the incubation medium. Neutrophils (3×10^6) in 1 ml HBSS solution were preincubated with cytochalasin B (5 μg) at 37° C. for 5 minutes, followed by preincubation with test compounds for 7 minutes. Neutrophils were then incubated for 2 to 20 minutes with either LTB4 (5×10^-8 M) or the chemotactic peptide f-met-leu-phe (5×10^-6 M) to induce degranulation. Following incubation, samples were centrifuged and myeloperoxidase was extracted from the cell pellets by sonication in phosphate buffer containing 0.4% Triton X-100. Triton X-100 was also added to the supernatants to a concentration of 0.4%. The supernatants and the pellet - extracts were then assayed spectrophotometrically for myeloperoxidase activity by determining the rate of decomposition of H2 O2 with o-dianisidine as hydrogen donor as described by Renlund, et al. (Renlund, D. G., MacFarlane, J. L., Christensen, R. D., Lynch, R. E., and Rothstein, G., A Quantitative And Sensitive Method For Measurement Of Myeloperoxidase, Clinical Research 28:75A, 1980). Myeloperoxidase activity released into the supernatant was expressed as the percent of the average total activity (pellet plus supernatant).

Assay [3] concerns human neutrophils. In words: Modified Boyden chamber chemotaxis (LTB4, human neutrophils). Format: cell-based. As to conditions: Neutrophil; for inhibition at 1 µM: 10^-6 M. The protocol:
Human neutrophils were isolated from citrated peripheral blood using standard techniques of dextran sedimentation, followed by centrifugation on Histopaque® sterile solution (Sigma) or Ficoll-paque® (Pharmacia) and hypotonic lysis of erythrocytes. A final cell suspension of 3.4×10^6 neutrophils/ml of HEPES-buffered Hanks balanced salt solution (HBSS, pH 7.3) was added to the upper well (0.8 ml) of a modified Boyden chamber (blind well). The lower well (0.2 ml), separated by a polycarbonate membrane (Nuleopore Corp.), contained HBSS or 3×10^-8 M LTB4 in the presence of absence of test compound. Following a 90 minute incubation at 37° C. in 5% CO2 -95% air, cells from the lower well were lysed and nuclei counted in a Model S-Plus-IV Coulter Counter. Percent inhibition was calculated from cell counts corrected for random migration by subtracting the mean of the HBSS control.

Assay [4] deals with T2, LTD4 receptor (Cavia porcellus, UniProt Q2NNR5).
T2 construct: from tissue; host or cells: lung membranes of male Hartley guinea pigs
T2 sequence (Q2NNR5 1-340): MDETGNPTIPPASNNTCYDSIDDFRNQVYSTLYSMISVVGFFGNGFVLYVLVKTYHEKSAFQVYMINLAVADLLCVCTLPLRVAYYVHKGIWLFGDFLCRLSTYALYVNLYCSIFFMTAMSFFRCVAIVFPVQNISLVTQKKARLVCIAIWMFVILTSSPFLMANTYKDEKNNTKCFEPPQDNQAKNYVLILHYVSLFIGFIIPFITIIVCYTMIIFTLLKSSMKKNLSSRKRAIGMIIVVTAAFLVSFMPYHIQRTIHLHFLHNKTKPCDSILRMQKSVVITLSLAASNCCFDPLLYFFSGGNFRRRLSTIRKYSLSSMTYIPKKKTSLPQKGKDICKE
As to the kind of experiment: LTD4 receptor binding assay using guinea pig lung membrane preparations. As to conditions: for Receptor Binding LTD4 IC50: Table 1, results are from Table 3, 10^-5 M. The protocol: MEMBRANE PREPARATIONS: For each membrane preparation, 10-11 male Hartley guinea pigs, weighing less than 350 gm, were sacrificed by guillotine. The lungs were rapidly removed and placed in ice-cold 50 mM Trisma 7.0 buffer. After all the lungs were collected, each was probed free of bronchial tissue to at least the level of tertiary branching as observed through a dissecting lamp. The tissue was minced with a razor blade on a damp paper towel and placed into fresh ice-cold Trisma 7.0 buffer. When all the tissues had been processed, they were pooled, drained and weighed. Nine volumes of cold buffer were added and the tissue was polytroned for 6-10 second bursts with a 1 minute cool down period in an ice bath between each burst. The homogenate was filtered through a gauze pad and centrifuged at 1085× g for 15 minutes at 4° C. Supernatants were saved and centrifuged at 40,000× g for 20 minutes at 4° C. This time, supernatants were discarded and the pellets were resuspended in 30-35 ml fresh Trisma 7.0 buffer by 1-10 second bursts with the polytron. The materials were centrifuged again at 40,000× g. Supernatants were again discarded. Each pellet was resuspended again with approximately 7 ml buffer. All this material was pooled into a 100 ml polypropylene container and stirred with a magnetic stirring bar. The tubes were rinsed with small amounts of buffer and the rinse was added to the membrane preparation. The homogenized membranes were aliquoted into 1.5 ml microfuge tubes and frozen at -70° C. Three aliquots were submitted for protein determinations by FPB (fluorescamine protein binding) assay.
Unless otherwise indicated, all binding experiments were performed in a final incubation volume of 250 μl. […] Both materials were received in solutions. […] Both solutions were brought to appropriate assay concentrations by dilution in assay buffer consisting of 50 mM Trisma 7.4 with 5 mM L-cysteine and 20 mM CaCl2. Membranes were also diluted with this assay buffer. […] Diluent was added to all other appropriate control tubes. Incubations were conducted for 30 minutes at 25° C. in a shaking water bath. Termination of the reaction was achieved by pouring the incubate over 2.5 cm Whatman GF/C filters soaked in assay buffer and set over the ports of Millipore filter vacuum manifolds. Filters were rinsed with 4 ml ice cold assay buffer 3 times. The filters were removed, placed in 10 ml Aquasol scintillation cocktail and allowed to cool in the dark for 2 hours prior to counting. All samples were corrected for background and isotope decay before converting DPM determination to mass.
These values were logit-transformed and linear regression was performed on the dose-response data. All dose-response sets used to calculate IC50 values contained data from 3-6 compound concentrations. […] IC50 values were calculated from the regression equation for the line.
male guinea pig lung homogenate which was aliquoted and stored at
-70° C. The particular preparation used to test the compounds of
Protein concentrations in these assays were adjusted
to provide aproximately 0.1 nM receptor in the presence of lnM ^3
HLTD4. Incubation was conducted for 30 min.
at 24° C. and filtration methods were used to separate bound from
tested were intially solubilized in DMSO. Each compound was evaluated at
dose of 10 μM (10^-5 M) in triplicate in 2 separate assays. The

Where [5] appears, read: read-out: Chemotaxis (Boyden) percent inhibition.
[6] abbreviates: read-out: LTD4 Receptor Binding Activity, 10 μM.
[7] abbreviates: read-out: LTD4 Receptor Binding Percent Inhibition, Test #1, 10 μM, triplicate, 30 min, 24° C.
The mark [8] stands for this setting: read-out: LTD4 Receptor Binding Percent Inhibition, Test #2, 10 μM, triplicate, 30 min, 24° C.

T1 sequence (Q15722 whole entry): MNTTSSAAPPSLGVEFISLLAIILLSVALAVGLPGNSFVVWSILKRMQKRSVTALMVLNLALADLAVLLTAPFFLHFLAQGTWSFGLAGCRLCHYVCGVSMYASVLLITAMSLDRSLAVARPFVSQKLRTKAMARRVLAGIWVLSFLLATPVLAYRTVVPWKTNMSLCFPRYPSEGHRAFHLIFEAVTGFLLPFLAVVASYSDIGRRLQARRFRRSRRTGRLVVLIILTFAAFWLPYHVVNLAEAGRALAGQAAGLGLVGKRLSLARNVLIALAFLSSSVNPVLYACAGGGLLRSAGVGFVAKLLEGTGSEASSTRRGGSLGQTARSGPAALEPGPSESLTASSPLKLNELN

As for `CCCc1c(OC2CCC(Oc3ccc(C(C)=O)c(OC)c3CCC)C2)ccc2c1OC(C(=O)O)CC2` (stereo not drawn) [Example 4, 7-[[3-(4-acetyl-3-methoxy-2-propylphenoxy)cyclopentyl]oxy]-3,4-dihydro-8-propyl-2H-1-benzopyran-2-carboxylic acid], the IC50 in assay [1] worked out at 5 µM; in assay [2], 2.7 µM. Also, the inhibition at 0.01 µM in assay [3] (10^-8 M, read-out: Chemotaxis (Boyden) percent inhibition) stood at 62%.
Turning to `CCCc1c(OCCCOc2ccc(C(C)=O)c(OC)c2CCC)ccc2c1OC(C(=O)NC)CC2` (stereo not drawn) [Example 8, 7-[3-(4-acetyl-3-methoxy-2-propylphenoxy)propoxy]-3,4-dihydro-N-methyl-8-propyl-2H-1-benzopyran-2-carboxamide], in assay [1], the IC50 was determined as 1.8 µM. The inhibition at 1 µM in assay [3] (setting [5]) turned out to be 12%.
Compound `CCCc1c(OCC(O)COc2ccc3c(=O)cc(C(=O)O)oc3c2CCC)ccc(C(C)=O)c1O` (stereo not drawn) [FPL 55712, reference compound] returned an IC50 in assay [4] of 10.4 µM. The inhibition at 10 µM is greater than 45% in assay [4] (read-out: LTD4 Receptor Binding Activity); 54.7% in assay [4] (read-out: LTD4 Receptor Binding Percent Inhibition, Test #1); 47% in assay [4] (read-out: LTD4 Receptor Binding Percent Inhibition, Test #2).
Turning to `CCCc1c(OCCCOc2ccc(C(=O)C(C)C)c(OC)c2CCC)ccc2c1OC(C(=O)O)CC2` (stereo not drawn) [Example 19, 3,4-dihydro-7-[3-[3-methoxy-4-(2-methyl-1-oxopropyl)-2-propylphenoxy]propoxy]-8-propyl-2H-1-benzopyran-2-carboxylic acid], the IC50 in assay [1] is 1.2 µM; in assay [2], 5 µM. The inhibition at 1 µM in assay [3] (setting [5]) turned out to be 15%.
`CCCc1c(OCCCOc2ccc(C(C)=O)c(OC)c2CCC)ccc2c1CC(C(=O)O)CC2` (stereo not drawn) [Example 18, 7-[3-(4-acetyl-3-methoxy-2-propylphenoxy)propoxy]-1,2,3,4-tetrahydro-8-propyl-2-naphthalenecarboxylic acid]: the IC50 in assay [1] came to 0.37 µM; in assay [2], 2.6 µM. The inhibition at 10 µM in assay [3] (10^-5 M, read-out: Chemotaxis (Boyden) percent inhibition) amounted to 87%.
`CCCc1c(OCCCOc2ccc3c(c2CCC)OC(C)(CCC(=O)O)CC3=O)ccc(C(C)=O)c1OC` (stereo not drawn) [Example 16, 7-[3-(4-acetyl-3-methoxy-2-propylphenoxy)propoxy]-3,4-dihydro-2-methyl-4-oxo-8-propyl-2H-1-benzopyran-2-propanoic acid]: the IC50 in assay [1] was found to be 0.25 µM; in assay [2] it was 0.55 µM; in assay [3], 0.65 µM. The “Receptor Binding LTD4 IC50” value in assay [4] is on record as “Inactive”. Moreover, the figures for the inhibition at 10 µM in assay [4] (setting [6]), in assay [4] (setting [7]) and in assay [4] (setting [8]) were less than 45%, 16.5% and 24.1%, respectively.
Take `C=CCc1c(OCCCOc2ccc3c(c2CCC)OC(C(=O)O)CC3)ccc(C(C)=O)c1OC` (stereo not drawn) [Example 5, 7-[3-[4-acetyl-3-methoxy-2-(2-propenyl)phenoxy]propoxy]-3,4-dihydro-8-propyl-2H-1-benzopyran-2-carboxylic acid]: the IC50 was 0.1 µM in assay [1], 0.4 µM in assay [2] and 0.5 µM in assay [3].
Turning to `CCCc1c(OCCCOc2ccc(C(C)=O)c(OC)c2CC2CC2)ccc2c1OC(C(=O)O)CC2` (stereo not drawn) [Example 3, 7-[3-[4-acetyl-2-(cyclopropylmethyl)-3-methoxyphenoxy]propoxy]-3,4-dihydro-8-propyl-2H-1-benzopyran-2-carboxylic acid], the half-inhibitory concentration (IC50) in assay [1] came to 0.19 µM; in assay [2] it was 0.18 µM; in assay [3] it was 0.2 µM.
Take `CCCc1c(OCC#CCOc2ccc3c(c2CCC)OC(C)(CCC(=O)O)CC3=O)ccc(C(C)=O)c1OC` (stereo not drawn) [Example 17]: the 50% inhibitory concentration (IC50) turned out to be 0.8 µM in assay [1] and 2.1 µM in assay [2]. In assay [3] (setting [5]), the inhibition at 1 µM stood at 31%.
As to `CCCc1c(OCCCOc2ccc(C(C)=O)c(OCC)c2CCC)ccc2c1OC(C(=O)O)CC2` (stereo not drawn) [Example 21, 7-[3-(4-acetyl-3-ethoxy-2-propylphenoxy)-propoxy]-3,4-dihydro-8-propyl-2H-1-benzopyran-2-carboxylic acid], the concentration for half-maximal inhibition (IC50) in assay [1] is 1 µM.
For `CCCc1c(OCCCOc2ccc3c(c2)OC(C(=O)O)CC3)ccc(C(C)=O)c1OC` (stereo not drawn) [Example 6, 7-[3-(4-acetyl-3-methoxy-2-propylphenoxy)propoxy]-3,4-dihydro-2H-1-benzopyran-2-carboxylic acid], the IC50 in assay [1] is 2.6 µM; in assay [2], 8 µM. In assay [3] (setting [5]), the inhibition at 1 µM worked out at 48%. Further, the “Receptor Binding LTD4 IC50” value in assay [4] is recorded as “Inactive”. Moreover, the figures for the inhibition at 10 µM in assay [4] (setting [6]), in assay [4] (setting [7]) and in assay [4] (setting [8]) were less than 45%, 1.63% and 26%, respectively.
For `CCCc1c(OCCCOc2ccc3c(=O)cc(CCC(=O)O)oc3c2CCC)ccc(C(C)=O)c1OC` [Example 22, 7-[3-(4-acetyl-3-methoxy-2-propylphenoxy)propoxy]-4-oxo-8-propyl-4H-1-benzopyran-2-propanoic acid], the values for the IC50 in assay [1], in assay [2] and in assay [3] were 0.5 µM, 1.6 µM and 1.2 µM, respectively.
